Laboratory results reported in US7713998B2, “Nitrogenous heterocyclic compound and pharmaceutical use thereof” (Ono Pharmaceutical Co., Ltd., priority 2004, dated 2010).

Key:
[1] = molecular target: recombinant human p38α MAP kinase (Homo sapiens, UniProt Q16539); experiment: Study on p38α MAP kinase inhibitory activity (ATF2 phosphorylation, Alpha Screen); format: biochemical; details: phosphorylation of biotinylated ATF2 by recombinant human p38α MAP kinase, 30° C. 30 minutes
Protocol: (1) Study on p38α Map Kinase Inhibitory Activity
Using activating transcription factor −2 (hereinafter abbreviated to ATF2) which is a substrate for p38α MAP kinase, the inhibitory action of the compounds of the present invention was investigated on the phosphorylation by a recombinant human p38α MAP kinase.
A kinase buffer (25 mM Tris-HCl (pH 7.5), 5 mM β-glycerophosphate, 2 mM dithiothreitol, 0.1 mM Na3VO4, 10 mM MgCl2) containing a recombinant human p38a MAP kinase was added to a 384-well plate (5 μL)(6.25 ng protein/well) for fluorescence measurement. After addition of a kinase buffer (5 μL) containing the compound of the present invention, the resulting mixture was incubated at room temperature for 20 minutes. […] The amount of a complex of the phosphorylated ATF2 and anti-phosphorylated ATF2 antibody produced by the reaction was measured using an Alpha Screen™ Rabbit Detection kit (Packard #6760607).
The p38α MAP kinase inhibitory activity, which is the effect of the compound of the present invention, was calculated as an inhibition rate (%) according to the following equation: Inhibition rate (%)={(AC−AX)/(AC−AB)}×100
wherein AB is a measured value without addition of the enzyme;
AC is a measured value with addition of the enzyme in the absence of a test compound; and
AX is a measured value with addition of the enzyme in the presence of a test compound. […]

[2] = tested on: TNF-α production stimulated by lipopolysaccharide (LPS) in THP-1; experiment: Inhibitory activity against TNF-α production using human cell lines (THP-1, LPS); format: cell-based; details: 1.5 h, THP-1 cells, 90 minutes, TNF-α in supernatant by ELISA
Protocol: (2) Inhibitory Activity Against TNF-α Production Using Human Cell Lines
Using THP-1 which is a human monocytic cell line, the inhibitory effect of the compound of the present invention against TNF-α production stimulated by lipopolysaccharide (LPS) was studied.
Each 50 μL of lipopolysaccharide (LPS; Difco #3120-25-0) prepared to a concentration of 40 ng/mL using RPMI-1640 medium containing 10% fetal calf serum (hereinafter abbreviated to RPMI-1640) and RPMI-1640 containing the compound of the present invention was added to a 96-well plate for cell culture. One hundred μL of the cell suspension of THP-1 (Dainippon Pharmaceutical Co., Ltd, #06-202) prepared to a cell density of 2×10^6 cells/mL using RPMI-1640 was added and cultured for 90 minutes at 37° C. in an incubator (5% CO2, 95% air). After completion of the reaction, the culture medium supernatant was recovered and the amount of produced TNF-α was measured using an ELISA kit (Invitrogen, #850090192).
The inhibitory activity against TNF-α production, which is the effect of the compound of the present invention, was calculated as an inhibition rate (%) by the following equation: Inhibition rate (%)={(AC−AX)/(AC−AB)}×100
wherein AB is a measured value without LPS induction;
AC is a measured value with LPS induction in the absence of a test compound; and
AX is a measured value with LPS induction in the presence of a test compound. […]

[3] = tested on: TNF-α production induced by lipopolysaccharide (LPS) in rats; experiment: Rat cytokine-production model; format: in vivo
Protocol: (3) Rat Cytokine-production Model
The in vivo effect of the compound of the present invention was studied on TNF-α production induced by lipopolysaccharide (LPS) in rats.
A vehicle containing the compound of the present invention was orally administered to male Lew mice (Charles River Japan, Inc.), and after 2 hours, lipopolysaccharide (LPS, 055:B5, Difco) was intravenously administered at the dose of 10 μg/kg (5 animals/group). Only a vehicle was orally administered to a control group (5 animals). Ninety minutes after the LPS treatment, heparinized blood collection was performed via the abdominal cava vein under anesthesia with ether, and blood plasma was obtained by centrifugation (12,000 rpm, 3 minutes, 4° C.). The obtained blood plasma sample was stored at −80° C. until it was used. TNF-α in the blood plasma was measured using an ELISA kit from Genzyme/Techne (#10516).
The inhibitory activity of the compound of the present invention against TNF-α production was calculated as an inhibition rate (%) according to the following equation: Inhibition rate (%)={(AC−AX)/AC}×100
wherein AC is a measured value in case where no test compound was administered under LPS induction, and
AX is a measured value in case where a test compound was administered under LPS induction.

Chain of recombinant human p38α MAP kinase (Q16539 whole entry): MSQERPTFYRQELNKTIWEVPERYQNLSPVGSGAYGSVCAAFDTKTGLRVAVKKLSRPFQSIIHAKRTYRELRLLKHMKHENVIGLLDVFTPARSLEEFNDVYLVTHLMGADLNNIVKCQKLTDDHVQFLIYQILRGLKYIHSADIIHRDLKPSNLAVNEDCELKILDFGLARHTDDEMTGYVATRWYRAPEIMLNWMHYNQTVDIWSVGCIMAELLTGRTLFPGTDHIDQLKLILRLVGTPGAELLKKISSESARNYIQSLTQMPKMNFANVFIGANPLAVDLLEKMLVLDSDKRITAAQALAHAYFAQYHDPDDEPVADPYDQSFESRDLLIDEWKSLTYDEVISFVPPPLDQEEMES

IC50 [1] [nM]	IC50 [2] [nM]	SMILES	TNF-α production inhibitory activity stronger by a factor than that of the compound disclosed in WO 01/030778 ([3]; comparison in same experimental model (1 mg/kg vs 10 mg/kg))	inhibition against in vivo TNF-α production induced by LPS stimulation ([3]; dose of 1 mg/kg orally, LPS 10 μg/kg i.v. after 2 hours, plasma 90 minutes after LPS) [%]	inhibition against in vivo TNF-α production induced by LPS stimulation ([3]; dose of 10 mg/kg, same experimental model) [%]
1.4	1.4	CN1CCC(c2nc(-c3ccc(=O)n(-c4c(Cl)cccc4Cl)c3)c(-c3ccc(F)cc3Cl)s2)CC1 [Example 10(2), 5-[5-(2-chloro-4-fluorophenyl)-2-(1-methylpiperidin-4-yl)-1,3-thiazol-4-yl]-1-(2,6-dichlorophenyl)pyridin-2(1H)-one]	≥ 10	90	
		C[C@H](Nc1cc(-c2sc(C3CCN(C)CC3)nc2-c2ccc(F)cc2)ccn1)c1ccccc1 [compound disclosed in WO 01/030778, 4-[4-(4-fluorophenyl)-2-(1-methyl-4-piperidinyl)-1,3-thiazol-5-yl]-N-[(1S)-1-phenylethyl]-2-pyridinamine, reference compound]			95
